Measurements published in PubChem BioAssay (NCI).
Several values for one entry are separate records, joined by “and”; a condition that tells them apart may be missing. Equal values may be shown once.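 Each compound was tested at five concentrations against cells in 96-well plates for 48 hours. TGI marks complete inhibition of growth.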

Experiments:
Experiment in all cases: NCI tumour cell line growth inhibition, 48 h
SK-OV-3 ovarian = tested on: SK-OV-3 ovarian
CCRF-CEM leukemia = tested on: CCRF-CEM leukemia
NCI/ADR-RES ovarian = tested on: NCI/ADR-RES ovarian
SN12C renal = tested on: SN12C renal
SNB-19 CNS = tested on: SNB-19 CNS

## COc1cc(OC)c(OC)cc1/C=N/N=C(\N)NO
SK-OV-3 ovarian
  TGI: > 100 µM
CCRF-CEM leukemia
  TGI: > 100 µM
NCI/ADR-RES ovarian
  TGI: > 100 µM
SN12C renal
  TGI: > 100 µM
SNB-19 CNS
  TGI: > 100 µM

## CCCCCC/C=C\CCCCCCCCCc1cccc(O)c1C(=O)O
SK-OV-3 ovarian
  TGI: > 100 µM
CCRF-CEM leukemia
  TGI: > 100 µM
NCI/ADR-RES ovarian
  TGI: > 100 µM
SN12C renal
  TGI: > 100 µM
SNB-19 CNS
  TGI: > 100 µM

## COC(=O)C1CC2(CCC1=O)Cc1ccccc1C2=O (stereo not given)
SK-OV-3 ovarian
  TGI: > 100 µM
CCRF-CEM leukemia
  TGI: > 100 µM
NCI/ADR-RES ovarian
  TGI: > 100 µM
SN12C renal
  TGI: > 100 µM
SNB-19 CNS
  TGI: > 100 µM

## COC(=O)c1c2n(c3ccccc13)C[C@H]1OC(C)(C)O[C@@H]21
SK-OV-3 ovarian
  TGI: > 100 µM
CCRF-CEM leukemia
  TGI: > 100 µM
NCI/ADR-RES ovarian
  TGI: > 100 µM
SN12C renal
  TGI: > 100 µM
SNB-19 CNS
  TGI: > 100 µM

## O=C(N=S(NC(=O)c1ccccc1)C(Cl)(Cl)Cl)c1ccccc1 (stereo not given)
SK-OV-3 ovarian
  TGI: > 31.6 µM
CCRF-CEM leukemia
  TGI: 12.1 µM
NCI/ADR-RES ovarian
  TGI: > 51.9 µM
SN12C renal
  TGI: 56.2 µM
SNB-19 CNS
  TGI: > 100 µM

## COc1nc(N)c(NC2OC(CO)C(O)C2O)c(=O)[nH]1 (stereo not given)
SK-OV-3 ovarian
  TGI: > 100 µM
CCRF-CEM leukemia
  TGI: > 100 µM
NCI/ADR-RES ovarian
  TGI: > 100 µM
SN12C renal
  TGI: > 100 µM
SNB-19 CNS
  TGI: > 100 µM

## C1=NCCNCCN=Cc2ccc(cc2)OCc2cccc(n2)COc2ccc1cc2
SK-OV-3 ovarian
  TGI: > 100 µM
CCRF-CEM leukemia
  TGI: > 100 µM
NCI/ADR-RES ovarian
  TGI: > 100 µM
SN12C renal
  TGI: > 100 µM
SNB-19 CNS
  TGI: > 100 µM

## CCCN(C(=O)c1c(Cl)nnc(Cl)c1C(=O)c1cc(Cl)nnc1Cl)c1cc(Cl)nnc1Cl
SK-OV-3 ovarian
  TGI: > 100 µM
CCRF-CEM leukemia
  TGI: 10.6 µM
NCI/ADR-RES ovarian
  TGI: 69.1 µM
SN12C renal
  TGI: 26.1 µM
SNB-19 CNS
  TGI: 87.7 µM

## COc1ccccc1NC(=O)/C(Cc1nc2ccc([N+](=O)[O-])cc2[nH]c1=O)=N\NC(=O)C[N+](C)(C)C
SK-OV-3 ovarian
  TGI: > 100 µM
CCRF-CEM leukemia
  TGI: 94.5 µM
NCI/ADR-RES ovarian
  TGI: > 100 µM
SN12C renal
  TGI: > 100 µM
SNB-19 CNS
  TGI: > 100 µM

## CCOC(=O)/C(C(=S)Nc1ccccc1)=C(/N)N1CCCC1
CCRF-CEM leukemia
  TGI: > 100 µM
NCI/ADR-RES ovarian
  TGI: > 100 µM
SN12C renal
  TGI: > 100 µM
SNB-19 CNS
  TGI: > 100 µM

## CC(=O)OC1C(O)COC(O[C@H]2CC[C@]34C[C@]35CC[C@]3(C)C([C@@]6(C)CC[C@@H](C(C)(C)O)O6)[C@@H](O)C[C@@]3(C)C5C[C@H](OC3OCC(O)C(O)C3O)[C@H]4C2(C)C)C1OC1OCC(O)C(O)C1O (stereo not given in full)
SK-OV-3 ovarian
  TGI: > 100 µM
NCI/ADR-RES ovarian
  TGI: > 100 µM
SN12C renal
  TGI: > 100 µM
SNB-19 CNS
  TGI: > 100 µM

## CCOC(=O)c1c(N2CCCC2)nsc1Nc1ccccc1
CCRF-CEM leukemia
  TGI: > 100 µM
NCI/ADR-RES ovarian
  TGI: > 100 µM
SN12C renal
  TGI: > 100 µM
SNB-19 CNS
  TGI: > 100 µM

## CN(C)CCNC(=O)c1cccc2c(NCC(=O)O)c3ccccc3nc12
SK-OV-3 ovarian
  TGI: > 100 µM
CCRF-CEM leukemia
  TGI: > 100 µM
NCI/ADR-RES ovarian
  TGI: 48.2 µM
SN12C renal
  TGI: > 100 µM
SNB-19 CNS
  TGI: 72.1 µM

## COC(=O)C1C(OC(=O)c2ccccc2)CC2CCC1N2C(N)=O (stereo not given)
SK-OV-3 ovarian
  TGI: > 100 µM
CCRF-CEM leukemia
  TGI: > 100 µM
NCI/ADR-RES ovarian
  TGI: > 100 µM
SN12C renal
  TGI: > 100 µM
SNB-19 CNS
  TGI: > 100 µM

## COc1cc2cc(C(=O)N3CC(CCl)c4ccc(O)cc43)[nH]c2c(OC)c1OC (stereo not given)
CCRF-CEM leukemia
  TGI: > 100 µM
SN12C renal
  TGI: 0.148 µM and 0.104 µM
SNB-19 CNS
  TGI: 0.453 µM and 0.21 µM

## COc1nc2c(c(=O)n1C)N(C(C)=O)C1C(N2)OCC(OC(C)=O)C1OC(C)=O (stereo not given)
SK-OV-3 ovarian
  TGI: > 10 µM
CCRF-CEM leukemia
  TGI: > 10 µM
NCI/ADR-RES ovarian
  TGI: > 10 µM
SN12C renal
  TGI: > 10 µM
SNB-19 CNS
  TGI: > 10 µM

## COC(=O)C1CCC(=O)N1CN(C(C)=O)c1ccccc1 (stereo not given)
SK-OV-3 ovarian
  TGI: > 100 µM
CCRF-CEM leukemia
  TGI: > 100 µM
NCI/ADR-RES ovarian
  TGI: > 100 µM
SN12C renal
  TGI: > 100 µM
SNB-19 CNS
  TGI: > 100 µM

## O=C(NCc1cccnc1)NCc1cccnc1
SK-OV-3 ovarian
  TGI: > 100 µM
NCI/ADR-RES ovarian
  TGI: > 100 µM
SN12C renal
  TGI: > 100 µM
SNB-19 CNS
  TGI: > 100 µM

## COC(=O)C1=CSC2(S1)C(C(=O)OC)=CSc1c2ssc1=Nc1ccccc1 (stereo not given)
SK-OV-3 ovarian
  TGI: 9.9 µM
CCRF-CEM leukemia
  TGI: 7.96 µM
NCI/ADR-RES ovarian
  TGI: 3.8 µM
SN12C renal
  TGI: 4.3 µM
SNB-19 CNS
  TGI: 8.71 µM

## COc1ccc(NC2Oc3cc4c(cc3C(c3cccc(OC)c3OC)C2C)OCO4)cc1 (stereo not given)
SK-OV-3 ovarian
  TGI: > 100 µM
CCRF-CEM leukemia
  TGI: 47.1 µM
SN12C renal
  TGI: > 100 µM
SNB-19 CNS
  TGI: > 100 µM

## O=c1oc2ccccc2c(Nc2ccc3c(c2)S(=O)(=O)c2ccccc2O3)c1[N+](=O)[O-]
SK-OV-3 ovarian
  TGI: 68 µM
CCRF-CEM leukemia
  TGI: 83.5 µM
NCI/ADR-RES ovarian
  TGI: > 100 µM
SN12C renal
  TGI: 92.9 µM
SNB-19 CNS
  TGI: > 100 µM

## O=C(NCCCCCCCCNC(=O)c1cc(-c2ccccc2)nc2ccccc12)c1cc(-c2ccccc2)nc2ccccc12
SK-OV-3 ovarian
  TGI: > 100 µM
CCRF-CEM leukemia
  TGI: > 100 µM
NCI/ADR-RES ovarian
  TGI: > 100 µM
SN12C renal
  TGI: > 100 µM
SNB-19 CNS
  TGI: > 100 µM

## COc1ccc(NC(=O)/C(=N\NC(=O)C[n+]2ccccc2)c2c(O)c3ccc(O)cc3oc2=O)c([N+](=O)[O-])c1
SK-OV-3 ovarian
  TGI: > 100 µM
CCRF-CEM leukemia
  TGI: > 100 µM
NCI/ADR-RES ovarian
  TGI: > 100 µM
SN12C renal
  TGI: > 100 µM
SNB-19 CNS
  TGI: > 100 µM

## CN(/N=C(\C(=O)O)c1ccccc1)C1=NCCCN1
SK-OV-3 ovarian
  TGI: > 100 µM
CCRF-CEM leukemia
  TGI: > 100 µM
NCI/ADR-RES ovarian
  TGI: > 100 µM
SN12C renal
  TGI: > 100 µM

## Cc1cc(C)c(C2=NOC(c3ccccc3)(c3cc(=O)n(-c4ccccc4)s3)O2)c(C)c1 (stereo not given)
SK-OV-3 ovarian
  TGI: > 100 µM
CCRF-CEM leukemia
  TGI: > 100 µM
NCI/ADR-RES ovarian
  TGI: 68.1 µM
SN12C renal
  TGI: > 100 µM
SNB-19 CNS
  TGI: > 100 µM

## Cc1c(/C=N/NC(=S)Nc2ccccc2Cl)c(=O)n(-c2ccccc2)n1C
SK-OV-3 ovarian
  TGI: 82.5 µM
CCRF-CEM leukemia
  TGI: > 100 µM
NCI/ADR-RES ovarian
  TGI: 76.1 µM
SN12C renal
  TGI: > 100 µM
SNB-19 CNS
  TGI: > 100 µM

## CC1(CCC2C=CCC2)CCCNC1=S (stereo not given)
SK-OV-3 ovarian
  TGI: > 10 µM
CCRF-CEM leukemia
  TGI: > 10 µM
SN12C renal
  TGI: > 10 µM
SNB-19 CNS
  TGI: > 10 µM

## CC1(C)CC(=O)c2c(nc3ccc4ccccc4c3c2-c2ccc(NC(=O)CCCC(=O)Nc3ccc(-c4c5c(nc6ccc7ccccc7c46)CC(C)(C)CC5=O)cc3)cc2)C1
SK-OV-3 ovarian
  TGI: > 100 µM
CCRF-CEM leukemia
  TGI: > 100 µM
NCI/ADR-RES ovarian
  TGI: > 100 µM
SN12C renal
  TGI: > 100 µM
SNB-19 CNS
  TGI: > 100 µM

## CC1C(c2ccccc2)OP(=O)(OC(C#N)c2ccccc2)N1C (stereo not given)
SK-OV-3 ovarian
  TGI: > 100 µM
CCRF-CEM leukemia
  TGI: > 100 µM
NCI/ADR-RES ovarian
  TGI: > 100 µM
SN12C renal
  TGI: > 100 µM
SNB-19 CNS
  TGI: > 100 µM

## O=C(c1ccccc1)c1ccc(COc2ccc(C(c3c(O)c4ccccc4oc3=O)c3c(O)c4ccccc4oc3=O)cc2)cc1
SK-OV-3 ovarian
  TGI: 35.4 µM
CCRF-CEM leukemia
  TGI: 16.4 µM
NCI/ADR-RES ovarian
  TGI: 40.9 µM
SN12C renal
  TGI: > 100 µM
SNB-19 CNS
  TGI: 58.6 µM

## CCC(NC(C)c1ccccc1)C(O)c1ccc(OCc2ccccc2)c(OCc2ccccc2)c1 (stereo not given)
SK-OV-3 ovarian
  TGI: 32.4 µM
CCRF-CEM leukemia
  TGI: 38.7 µM
NCI/ADR-RES ovarian
  TGI: 30.6 µM
SN12C renal
  TGI: 29.5 µM
SNB-19 CNS
  TGI: 28.6 µM

## COc1c2c(cc3oc(C)cc(=O)c13)OC(=N)C(C(N)=O)C2CC(=O)c1ccc(N)cc1 (stereo not given)
CCRF-CEM leukemia
  TGI: > 100 µM
NCI/ADR-RES ovarian
  TGI: > 100 µM
SN12C renal
  TGI: > 100 µM
SNB-19 CNS
  TGI: > 100 µM

## CNC(=O)N1CN(c2ccccc2)C2(CCN(CCCC(=O)c3ccc(F)cc3)CC2)C1=O
SK-OV-3 ovarian
  TGI: 79.9 µM
CCRF-CEM leukemia
  TGI: 70.8 µM
NCI/ADR-RES ovarian
  TGI: 36.6 µM
SN12C renal
  TGI: 75.4 µM
SNB-19 CNS
  TGI: > 100 µM

## C#CCOCC12C=CC(O1)C1C(=O)N(C)C(=O)C12 (stereo not given)
SK-OV-3 ovarian
  TGI: > 100 µM
CCRF-CEM leukemia
  TGI: > 100 µM
NCI/ADR-RES ovarian
  TGI: > 100 µM
SN12C renal
  TGI: > 100 µM
SNB-19 CNS
  TGI: > 100 µM
